In patent US8409550B2, “Method for treating skin with retinoids and retinoid boosters” (Unilever Home & Personal Care, USA, Division of Conopco, …, priority 2000, dated 2013):
Several values for one entry are separate records, joined by “and”; a condition that tells them apart may be missing. Equal entries are not always repeated. Where two headings read alike, the source gives them in different places.

Key:
ARAT = test: Assay for ARAT activity, bovine RPE microsomes (to identify B1); assay type: biochemical; settings: for % Inhibition ARAT (100 jm): compound 100 jm; for % Inhibition ARAT (10 jm): compound 10 jm
Protocol: 2.1 Isolation of RPE Microsomes (Modified from (1))
50 frozen hemisected bovine eyecups, with the retina and aqueous humor removed were obtained from W. L. Lawson Co., Lincoln, Nebr., USA. The eyes were thawed overnight and the colored iridescent membrane was removed by peeling with forceps. Each eyecup was washed with 2× 0.5 mL cold buffer (0.1M PO4/1 mM DTT/0.25N sucrose, pH 7) by rubbing the darkly pigmented cells with an artist's brush or a rubber policeman. The cell suspension was added to the iridescent membranes and the suspension was stirred for several minutes in a beaker with a Teflon stir bar.
The cell homogenate was centrifuged for 30 min. at 20,000 g (Sorvaal model RC-5B centrifuge with an SS34 rotor in 2.5×10 cm tubes at 14,000 RPM). The resulting supernatant was subjected to further centrifugation for 60 min. at 150,000 g (Beckman model L80 Ultracentrifuge with an SW50.1 rotor in 13×51 mm tubes at 40,000 RPM). The resulting pellets were dispersed into ˜5 mL 0.1M PO4/5 mM DTT, pH 7 buffer using a Heat Systems Ultrasonics, Inc. model W185D Sonifier Cell Disrupter, and the resulting microsomal dispersion was aliquoted into small tubes and stored at −70° C. The protein concentrations of the microsomes were determined using the BioRad Dye binding assay, using BSA as a standard.
2.3 Assay for ARAT and LRAT Activity (to Identify B1)
The procedure below was a modification of a method described in the literature (2). The following buffer was prepared and stored at 4° C.: 0.1M PO4 5 mM dithiothreitol, pH 7.0 (PO4/DTT). On the day of the assay, 2 mg BSA per mL of buffer was added to give a PO4/DTT/BSA working buffer. 1 mM retinol substrate was prepared in acetonitrile and stored in amber bottles under nitrogen gas at −20° C. Solutions of 4 mM Palmitoyl-CoA in working buffer (stored in aliquots) and 4 mM dilauroyl phosphatidyl choline in ethanol were prepared and stored at −20° C. Inhibitors were prepared as 10 mM stock solutions in H2O, ethanol, acetonitrile or DMSO. The quench solution was prepared using pure ethanol containing 50 μg/mL butylated hydroxytoluene (BHT), and a hexane solution containing 50 μg/mL BHT was used for the extractions.
The mixture was incubated for 5 min. at 37° C. to equilibrate the reaction temperature and then 5 μL 1 mM retinol was added. The vials were capped, vortexed for 5 seconds and incubated for 30-90 minutes at 37° C. The reaction was quenched by adding 0.5 mL ethanol/BHT. The retinoids were extracted by adding 3 mL hexane/BHT, vortexing the tubes for several seconds several times and centrifuging the tubes at low speed for 5 min. to quickly separate the layers. The upper hexane layer was removed into a clean vial, and the aqueous layer re-extracted with another 3 mL hexane/BHT, as described above. The hexane layers were combined, and the hexane evaporated by drying at 37° C. under a stream of nitrogen gas on a heated aluminum block. The dried residue was stored at −20° C. until HPLC analysis. The amount of retinyl palmitate and retinyl laurate was quantitated for ARAT and LRAT activity, respectively, by integration of the HPLC signal as described below.
Note that the incubation solution contains 40 μM acyl donor, 100 μM or less inhibitor, 10 uM retinol, approximately 30 μg/mL microsomal protein, and nearly 0.17 PO4/pH 7/5 mM DTT/2 mg/mL BSA. All steps subsequent to the addition of retinol were done in the dark or under amber lights.
Samples for retinoid quantitation by HPLC were prepared by dissolving the residue in each vial with 100 μL of methanol. […] Aliquots of 60 μL were injected immediately and analysed for retinoid content.
Two HPLC protocols were used for retinoid analysis.
These protocols were selected based on their ability to clearly resolve pertinent retinoid acids, alcohols, aldehydes, and/or esters for each assay and relative quickness of separation.

[1] = system: transglutaminase (TGase I); test: Transglutaminase (Tgase) ELISA assay in cultured keratinocytes with retinol and boosters; assay type: cell-based, human; settings: for TG as % C, Compd 3: Compound 3 alone; for TG as % C, Compd 3 / TG as % C Compd 1 / TG as % C Compd 2: concentration one log below IC20; for IC20: IC20 (80% of control); for Tgase levels (Mean): with 10^-7 M retinol
Protocol: For this reason, a transalutaminase (Tgase) assay was utilised.
Thus TGase I is a useful marker of epidermal keratinocyte differentiation with high TGase I levels indicating a more differentiated state. An ELISA based TGase I assay, using a TGase I antibody, was used to assess the state of differentiation of the cultured keratinocytes in the examples that follow.
Keratinocytes (cultured as described above) were plated in 96 well plates at a density of 4,000-5,000 cells per well in 200 μl media. After incubation for two to three days, or until cells are ˜50% confluent, the media was changed to media containing test compounds (five replicates per test). The cells were cultured for a further 96 hours after which time the media was aspirated and the plates stored at −70° C. Plates were removed from the freezer, and the cells were washed twice with 200 μl of 1×PBS. The cells were incubated for one hour at room temperature (R/T) with TBS/5% BSA (wash buffer, bovine serum albumin). Next the TGase primary antibody was added: 50 μl of monoclonal anti-Tgase I Ab B.C. diluted 1:2000 in wash buffer. The primary antibody was incubated for 2 hours at 37° C. and then rinsed 6× with wash buffer. Cells were then incubated with 50 μl of secondary antibody (Fab fragment, peroxidase conjugated anti-mouse IgG obtaining from Amersham) diluted 1:4,000 in wash buffer for two hours at 37° C., then rinsed three times with wash buffer. Following the rinse with washing buffer, the cells were rinsed 3× with PBS. For colourimetric development, the cells were incubated with 100 μl substrate solution (4 mg o-phenylenediamine and 3.3 μl 30% H2O2 in 10 ml 0.1M citrate buffer pH 5.0) for exactly five minutes, R/T, in darkness (under aluminum foil). The reaction was stopped by the addition of 50 μl 4 N H2SO4. […] Out of the five replicates, four were treated with both antibodies, the fifth one was use as a Tgase background control. Tgase levels were determined and expressed as percentage control.
A suspension of keratinocytes was prepared at a concentration of 3000 cells/200 μl/well in KGM medium (Used 3×10^5 cells/12 ml media in each microtitre plate)
200 μl of the keratinocyte suspension was transferred into each of the inner 60 wells only.
Each plate was incubated at 37° C. and 5% CO2 for 3 days or until cells are ˜50% confluent.
Stock solutions of the samples were prepared in DMSO.
The samples were diluted to desired concentration with the final assay concentration of DMSO being 0.1%.

[2] = in the presence of 10^-7M retinol
[3] = compound tested individually in the presence of 10^-7 M retinol
[4] = B1 table, booster concentration which with 10^−7 M retinol inhibits TGase by 50%, same values in the 19th table (Molar), read-out: Overall TG (IC 50)
[5] = Tgase inhibition, compound tested individually in the presence of 10^-7 M retinol, read-out: IC50
[6] = Compound 2 alone, in the presence of 10^-7M retinol
[7] = B5 table, with 10^−7 M retinol, read-out: Overall TG (IC 50)
[8] = Compound 1 alone, in the presence of 10^-7M retinol

Molecule: CC(=O)c1cc2c(cc1C)C(C)(C)C(C)CC2(C)C (stereo not shown) [Tonalid]
- % Inhibition ARAT (100 jm) (ARAT): 50%

Molecule: CC(C)=CCCC(C)=CCCC(C)=CCO [Farnesol]
- TG as % C, Compd 3 [1, 2]: 118 % C
- IC20 [1, 3]: 78.2 µM
- TG as % C Compd 1 ([1]; compound 1 alone, with retinol): 98 % C
- % Inhibition ARAT (10 jm) (ARAT): 23% +/− 18
- % Inhibition ARAT (100 jm) (ARAT): 53% +/− 18

Molecule: CC12CCC(C1)C(C)(C)C2O (stereo not shown) [Fenchyl Alcohol]
- % Inhibition ARAT (100 jm) (ARAT): 12%

Molecule: Castor Oil MEA
- IC50 [1, 4]: 32.5 µM
- IC50 [1, 5]: 32.5 µM
- TG as % C Compd 1 ([1]; compound 1 alone, with retinol): 110 % C
- TG as % C Compd 1 ([1]; compound 1 alone, with retinol, listed as Caster oil MEA): 96 % C

Molecule: CC/C=C\C/C=C\C/C=C\CCCCCCCC(=O)O [Linolenic Acid]
- TG as % C, Compd 3 [1, 2]: 208 % C
- IC20 [1, 3]: 121 µM

Molecule: C/C=C\C(=O)C1C(C)=CCCC1(C)C (stereo not shown) [a-Damascone]
- TG as % C, Compd 3 [1, 2]: 89 % C

Molecule: CCCCC/C=C\C/C=C\CCCCCCCC(=O)NCCO [Linoleoyl Monoethanolamide (LAMEA)]
- TG as % C, Compd 3 [1, 2]: 127 % C

Molecule: O=C(O)CCCCCCCCCCCCCCC(=O)O [Hexadecanedioic Acid]
- TG as % C Compd 2 [1, 6]: 90 % C
- IC20 [1, 3]: 84 µM
- IC50 [1, 5]: 130 µM
- TG as % C Compd 2 ([1]; compound 2 alone, with retinol): 125 % C

Molecule: CC(=O)/C=C/C1C(C)=CCCC1(C)C (stereo not shown) [a-Ionone]
- TG as % C, Compd 3 [1, 2]: 88 % C

Molecule: Coco Trimethyl-ammonium Cl—
- % Inhibition ARAT (100 jm) (ARAT): 27%

Molecule: O=c1ccc2ccccc2o1 [Coumarin]
- TG as % C, Compd 3 [1, 2]: 80 % C
- TG as % C Compd 2 ([1]; compound 2 alone, with retinol): 96 % C

Molecule: CCCCCCCCCCC(O)C(=O)NCCO (stereo not shown) [Hydroxyethyl-2-Hydroxy-C12 Amide, N-Hydroxyethyl-2-hydroxydodecyl amide]
- IC50 [1, 4]: 32.9 µM
- IC20 [1, 3]: 24 µM
- IC50 [1, 5]: 32.9 µM

Molecule: CC(C)CCCCCCCCCCCCCCC(=O)O [Isostearic Acid]
- TG as % C Compd 2 [1, 6]: 87 % C
- IC20 [1, 3]: 62.3 µM
- TG as % C Compd 2 ([1]; compound 2 alone, with retinol): 146 % C

Molecule: CCCCCCC(O)CCCCCCCCCCC(=O)O (stereo not shown) [12-Hydroxystearic Acid]
- TG as % C, Compd 3 [1, 2]: 95 % C
- IC50 ([1]; Homo sapiens, Keratinocyte, B4 table, with 10^−7 M retinol, read-out: Overall TG (IC 50)): 29.1 µM
- IC20 [1, 3]: 14.5 µM

Molecule: CC(=O)c1cc2c(cc1C)C(C)(C)[C@H](C)[C@H]2C(C)C [Traseolide]
- % Inhibition ARAT (100 jm) (ARAT): 41%

Molecule: CC1=C(/C=C/C(C)=C/C=C/C(C)=C/CO)C(C)(C)CCC1 [retinol, All-trans-retinol, reference compound]
- inhibition of transglutaminase production (maximal) ([1]; 1 μM retinoid, day 2, keratinocytes 4000 cells/well): 55%

Molecule: Nn1nnc2ccccc21
- TG as % C Compd 2 [1, 6]: 105 % C
- TG as % C, Compd 3 [1, 2]: 105 % C
- TG as % C Compd 2 ([1]; compound 2 alone, with retinol): 105 % C and 126 % C
- TG as % C Compd 2 ([1]; compound 2 alone, with retinol, listed as Aminobenzotriazole): 98 % C

Molecule: CCCCCC(N)=O [Hexanoamide]
- % Inhibition ARAT (100 jm) (ARAT): 20%

Molecule: CCCCC/C=C\C/C=C\CCCCCCCC(=O)NCCCN(C)C [Linoleamidopropyl Dimethylamine]
- % Inhibition ARAT (100 jm) (ARAT): 69% +/− 18

Molecule: CCCCCCCCCCCCCCCC(=O)O [Hexadecanoic acid]
- TG as % C Compd 2 ([1]; compound 2 alone, with retinol): 95 % C

Molecule: CCCCCCCCCCCCCCCCC(O)C(=O)O (stereo not shown) [2-hydroxysteric acid, 2-Hydroxystearic acid]
- TG as % C Compd 2 [1, 6]: 83 % C
- TG as % C Compd 1 ([1]; compound 1 alone, with retinol): 92 % C

Molecule: CCCCCCCCCCCC1=NCCN1CCO [Lauryl Hydroxyethylimidazoline]
- IC50 [1, 7]: 0.467 µM
- TG as % C, Compd 3 [1, 2]: 52 % C
- IC20 [1, 3]: 0.269 µM
- IC50 [1, 5]: 0.467 µM
- TG as % C Compd 2 ([1]; compound 2 alone, with retinol): 73 % C
- TG as % C Compd 2 ([1]; compound 2 alone, with retinol, listed as Lauryl hydorxyimidazoline): 106 % C
- TG as % C Compd 2 ([1]; compound 2 alone, with retinol, listed as Lauryl hydroxyethylimiazoline): 98 % C

Molecule: CCCCCCCCCCCC(=O)N(C)CC(=O)O [Lauroyl Sarcosine]
- % Inhibition ARAT (100 jm) (ARAT): 20%

Molecule: CC(C)=CCC/C(C)=C/CO [Geraniol]
- TG as % C, Compd 3 [1, 2]: 105 % C
- IC20 [1, 3]: 4720 µM
- % Inhibition ARAT (10 jm) (ARAT): 13%
- % Inhibition ARAT (100 jm) (ARAT): 32%

Molecule: CCCCCCCC(=O)OC[C@H](COP(=O)(O)OCCN)OC(=O)CCCCCCC [1,2-dioctanoyl-sn-glycero-3-phosphoethanolamide]
- TG as % C Compd 1 [1, 8]: 81 % C
- Tgase levels (Mean) ([1]; booster 1.6E−04 Molar): 58.1 % of control
- Tgase levels (Mean) ([1]; booster 1.78E−05 Molar): 104 % of control
- Tgase levels (Mean) ([1]; booster 1.79E−9 Molar): 82 % of control
- Tgase levels (Mean) ([1]; booster 1.98E−06 Molar): 110 % of control
- Tgase levels (Mean) ([1]; booster 2.19E−09 Molar): 88.6 % of control
- Tgase levels (Mean) ([1]; booster 4.39E−08 Molar): 127.3 % of control
- Tgase levels (Mean) ([1]; booster 5.33E−05 Molar): 95.4 % of control
- Tgase levels (Mean) ([1]; booster 5.93E−06 Molar): 129 % of control
- Tgase levels (Mean) ([1]; booster 6.58E−07 Molar): 92.8 % of control
- Tgase levels (Mean) ([1]; booster 8.78E−09 Molar): 119 % of control
- TG as % C Compd 1 ([1]; compound 1 alone, with retinol): 123 % C and 95 % C and 106 % C

Molecule: Oleyl Betaine
- IC50 [1, 4]: 28 µM
- TG as % C Compd 1 [1, 8]: 62 % C
- IC20 [1, 3]: 10.8 µM
- IC50 [1, 5]: 28 µM
- TG as % C Compd 1 ([1]; compound 1 alone, with retinol, listed as Oleoyl beatine): 96 % C
- TG as % C Compd 1 ([1]; compound 1 alone, with retinol, listed as Oleoyl betaine): 99.5 % C
- % Inhibition ARAT (100 jm) (ARAT): 47%

Molecule: Alpha-Ionone
- IC50 [1, 4]: 927 µM
- IC20 [1, 3]: 142 µM
- IC50 [1, 5]: 927 µM
- TG as % C Compd 1 ([1]; compound 1 alone, with retinol): 101 % C

Molecule: O=C1CCc2ccccc2N1 [3,4-dihydro-2 quinolinone, 3,4,-Dihydro-2(1H)-quinolinone(Hydrocarbostyril)]
- TG as % C Compd 2 ([1]; compound 2 alone, with retinol): 102 % C

Molecule: O=c1c2cccc3cccc(c32)c2nc3ccccc3n12 [7H-Benzimidazo[2,1-a]Benz[de]-isoquinolin-7-one]
- TG as % C, Compd 3 [1, 2]: 94 % C
- IC20 [1, 3]: 0.469 µM

Molecule: CCCCC/C=C/C/C=C/CCCCCCCC(=O)NC(C)c1ccccc1 (stereo not shown) [Melinamide, reference compound]
- % Inhibition ARAT (100 jm) (ARAT): 64% +/− 15

Molecule: Dimethyl imidazolinone
- TG as % C Compd 2 [1, 6]: 87 % C
- TG as % C, Compd 3 [1, 2]: 87 % C

Molecule: CC(C)=CCC/C(C)=C/CC/C(C)=C/CC/C(C)=C/CO [Geranyl Geraniol]
- % Inhibition ARAT (10 jm) (ARAT): 38% +/− 12
- % Inhibition ARAT (100 jm) (ARAT): 81% +/− 6

Molecule: CCCCCCCCCCCCCC(=O)N(C)CC(=O)O [Myristoyl Sarcosine]
- % Inhibition ARAT (100 jm) (ARAT): 41% +/− 14

Molecule: O=C1CCc2ccccc2N1
- TG as % C Compd 2 [1, 6]: 90 % C
- TG as % C, Compd 3 [1, 2]: 90 % C

Molecule: COc1cc(NS(C)(=O)=O)ccc1Nc1c2ccccc2nc2ccccc12 [Amsacrine, reference compound]
- TG as % C Compd 1 [1, 8]: 79 % C
- TG as % C Compd 2 [1, 6]: 79 % C
- IC20 [1, 3]: 3.3 µM
- TG as % C Compd 1 ([1]; compound 1 alone, with retinol): 102 % C

Molecule: Oc1ccc2ccccc2n1 [Hydroxyquinoline (Carbostyril), 2-Hydroxyquinoline(Carbostyril)]
- IC50 [1, 7]: 364 µM
- TG as % C, Compd 3 [1, 2]: 95 % C
- IC20 [1, 3]: 170 µM
- IC50 [1, 5]: 364 µM

Molecule: CC(C)=CCCC(C)=CC=O [Citral]
- % Inhibition ARAT (100 jm) (ARAT): 20%

Molecule: CC(C)=CCCC(C)CCO (stereo not shown) [Citronellol]
- % Inhibition ARAT (100 jm) (ARAT): 30%

Molecule: CCN(CC)CC(=O)Nc1c(C)cccc1C [Lidocaine, reference compound]
- % Inhibition ARAT (100 jm) (ARAT): 12%

Molecule: Dimethyl imidazoline
- TG as % C Compd 2 ([1]; compound 2 alone, with retinol): 112 % C

Molecule: Dimethyl Imidazolidinone
- % Inhibition Overall TG (—ROH/RE) ([1]; % (booster+retinol inhibition/control inhibition) − % (ROH inhibition/control inhibition)): 22%
- TG as % C Compd 1 ([1]; compound 1 alone, with retinol): 99 % C

Molecule: […]-Damascone
- TG as % C, Compd 3 [1, 2]: 89 % C

Molecule: CCCCC/C=C\C/C=C\C/C=C\C/C=C\CCCC(=O)[O-].[Na+] [Arachidonic Acid (Na+ salt)]
- TG as % C, Compd 3 [1, 2]: 78 % C

Molecule: CCCCCCCCCCCCCCCC(=O)NCCO [Palmitamide Monoethanolamide]
- TG as % C, Compd 3 [1, 2]: 95 % C

Molecule: CCCCC/C=C\C/C=C\CCCCCCCC(=O)NCCO [Linoleoyl Monoethanolamide]
- IC50 [1, 4]: 16.1 µM
- IC20 [1, 3]: 14.8 µM
- IC50 [1, 5]: 16.1 µM

Molecule: CCCCCCCC/C=C/CCCCCCCC(=O)O [Elaidic Acid]
- TG as % C Compd 1 [1, 8]: 93 % C
- TG as % C, Compd 3 [1, 2]: 93 % C
- IC20 [1, 3]: 58.8 µM
- IC50 [1, 5]: 65 µM
- TG as % C Compd 2 ([1]; compound 2 alone, with retinol): 144 % C

Molecule: […]-Ionone
- TG as % C Compd 1 [1, 8]: 68 % C
